Data: ChEMBL document CHEMBL1799910, “Optimization of 1,2,3,4-tetrahydroacridin-9(10H)-ones as antimalarials utilizing structure-activity and structure-property relationships” (J Med Chem, 2011)
In brackets after ≈: the same amount, converted by molar mass.

Legend:
[1] = Stability in mouse liver microsomes; format: ADME, Microsome; conditions: liver microsomes
[2] = test system: Plasmodium falciparum; assay: Antimalarial activity against chloroquine and pyrimethamine-resistant Plasmodium falciparum W2 infected in human A positive erythrocytes after 72 hrs by SYBR Green I assay; format: functional, organism-based; conditions: W2, 72 h
[3] = test system: Plasmodium falciparum; assay: Antimalarial activity against chloroquine, mefloquine, pyrimethamine and atovaquone-resistant Plasmodium falciparum TM90-C2B infected in human A positive erythrocytes after 72 hrs by SYBR Green I assay; format: functional, organism-based
[4] = Partition coefficient, log D of the compound at pH 7.4 by HPLC analysis; conditions: octanol/water
[5] = Cytotoxicity index, ratio of EC50 for mouse J774 cells to EC50 for chloroquine, mefloquine, pyrimethamine and atovaquone-resistant Plasmodium falciparum TM90-C2B; format: cell-based; conditions: read-out: Ratio EC50
[6] = test system: Plasmodium falciparum; assay: Resistance index, ratio of EC50 for chloroquine, mefloquine, pyrimethamine and atovaquone-resistant Plasmodium falciparum TM90-C2B to EC50 for chloroquine and pyrimethamine-resistant Plasmodium falciparum W2; format: functional
[7] = Permeability of the compound by PAMPA method at pH 7.4; format: ADME; conditions: read-out: permeability
[8] = test system: J774; assay: Cytotoxicity against mouse J774 cells after 72 hrs by Cell titer 96 aqueous one solution cell proliferation assay; format: cell-based; conditions: J774, 72 h
[9] = Aqueous solubility of compound at pH 7.4 by HPLC analysis; conditions: buffer

Row | SMILES | half-life [1] [min] | EC50 [2] [nM] | EC50 [3] [nM] | logD [4] | selectivity ratio [5] | Ratio EC50 [6] | Papp [7] [×10⁻⁶ cm/s] | EC50 [8] [nM] | solubility [9] [µM]
1 | Cc1cc(Cl)ccc1-c1ccc2[nH]c3c(c(=O)c2c1)CSCC3 | 8.4 | 34.6 | 23.2 | 2.4 | ≥ 100 | 0.67 | < 1 | > 2000 | 2 (≈ 0.684 µg/mL)
2 | COc1ccc2c(=O)c3c([nH]c2c1)CCC(F)(F)C3 | 15.8 | 343 | 351 | 1.6 | ≥ 100 | 1.02 | 39 | > 10000 | 14 (≈ 3.71 µg/mL)
3 | COc1cc2[nH]c3c(c(=O)c2cc1Cl)CC(F)(F)CC3 | 8.5 | 76.7 | 5.6 | 2.1 | ≥ 100 | 0.07 | 107 | > 10000 | 10 (≈ 3 µg/mL)
4 | Cc1cc(Oc2ccc(OC(F)(F)F)cc2)ccc1-c1ccc2[nH]c3c(c(=O)c2c1)CSCC3 | 15.1 | 27.7 | 326 | 3.6 | ≥ 100 | 11.8 | < 1 | > 5000 | 7 (≈ 3.38 µg/mL)
5 | COc1ccc2c(=O)c3c([nH]c2c1)CCC(C)(C)C3 | 77 | 54.3 | 175 | 2.2 | ≥ 100 | 3.22 | 88 | > 40000 | 61 (≈ 15.7 µg/mL)
6 | Cc1cccc2c(=O)c3c([nH]c12)CCCC3 | 6.4 | 2200 | 888 | 1.9 | ≥ 100 | 0.4 | 26 | > 40000 | 47 (≈ 10 µg/mL)
7 | O=c1c2c([nH]c3cc(F)cc(F)c13)CCCC2 | 3.6 | 16.5 | 45 | 1.5 | ≥ 100 | 2.72 | 13 | > 2000 | 3 (≈ 0.706 µg/mL)
8 | COc1ccc2c(=O)c3c([nH]c2c1)CC(C)(C)CC3 | 24.8 | 355 | 112 | 2.2 | ≥ 100 | 0.32 | 64 | > 40000 | 92 (≈ 23.7 µg/mL)
9 | O=c1c2c([nH]c3cc(Cl)cc(Cl)c13)CCCC2 |  | 87.8 | 96.2 | 2.5 | ≥ 100 | 1.1 | 134 | > 5000 | 8 (≈ 2.15 µg/mL)
10 | COc1ccc2c(=O)c3c([nH]c2c1)CCCCC3 |  | 171 | 153 | 2.1 | ≥ 100 | 0.89 | 39 | > 20000 | 30 (≈ 7.3 µg/mL)
11 | COc1cc2[nH]c3c(c(=O)c2cc1Cl)C[S+]([O-])CC3 (stereo not given) | 990 | 4710 | 1360 | 1.3 |  |  |  | > 40000 | 
12 | COc1cc(OC)c2[nH]c3c(c(=O)c2c1)CCCC3 |  | > 9640 | 7980 | 1.9 | ≥ 100 | <0.83 | 51 | > 20000 | 152 (≈ 39.4 µg/mL)
13 | COc1cccc2c(=O)c3c([nH]c12)CCC(C)(C)C3 |  | 1990 | 620 | 2.4 | ≥ 100 | 0.31 | 95 | > 40000 | 91 (≈ 23.4 µg/mL)
14 | COc1cc2[nH]c3c(c(=O)c2cc1C)CSCC3 |  | 113 | 96.9 | 0.9 | ≥ 100 | 0.86 | 68 | > 10000 | 14 (≈ 3.66 µg/mL)
15 | O=c1c2c([nH]c3cc(C(F)(F)F)ccc13)CCCC2 |  | 120 | 19 | 2.7 | ≥ 100 | 0.16 | 73 | > 20000 | 158 (≈ 42.2 µg/mL)
16 | O=c1c2c([nH]c3ccc(-c4ccc(OCc5ccccc5)cc4)cc13)CCSC2 |  | 35.9 | 370 | 2.8 | ≥ 100 | 10.3 | < 1 | > 1000 | 1 (≈ 0.4 µg/mL)
17 | O=c1c2c([nH]c3ccc(-c4ccncc4)cc13)CCSC2 |  | 6210 | 4990 | 0.8 | ≥ 100 | 0.8 | 15 | > 20000 | 45 (≈ 13.2 µg/mL)
18 | Cc1ccc2[nH]c3c(c(=O)c2c1)CCC(C)(C)C3 |  | 587 | 319 | 2.4 | ≥ 100 | 0.54 | 78 | > 2000 | 4 (≈ 0.965 µg/mL)
19 | O=c1c2c([nH]c3cc(C(F)(F)F)ccc13)CCCCCC2 |  | 4740 | 4230 | 3.2 | ≥ 100 | 0.89 | 252 | > 10000 | 13 (≈ 3.84 µg/mL)
20 | Cc1ccc2c(=O)c3c([nH]c2c1C)CCCC3 |  | 3920 | 2280 | 2.2 | ≥ 100 | 0.58 | 42 | > 5000 | 8 (≈ 1.82 µg/mL)
21 | O=c1c2c([nH]c3cc(Cl)c(Cl)cc13)CCCC2 |  | 321 | 341 | 2.6 | ≥ 100 | 1.06 | 180 | > 1000 | 1 (≈ 0.268 µg/mL)
22 | Cc1ccc2[nH]c3c(c(=O)c2c1)CC(C)(C)CC3 |  | 474 | 2180 | 2.4 | ≥ 100 | 4.6 | 84 | > 40000 | 52 (≈ 12.5 µg/mL)
23 | COc1cc2[nH]c3c(c(=O)c2cc1C)CCCC3 |  | 34.8 | 16.2 | 2 | ≥ 100 | 0.46 | 50 | > 20000 | 23 (≈ 5.6 µg/mL)
24 | Cc1ccc(C)c2c(=O)c3c([nH]c12)CCCC3 |  | 3070 | 2390 | 2.6 | ≥ 100 | 0.78 | 263 | > 20000 | 122 (≈ 27.7 µg/mL)
25 | Cc1ccc2c(=O)c3c([nH]c2c1)CCC(C)(C)C3 |  | 166 | 1980 | 2.4 | ≥ 100 | 11.9 | 82 | > 40000 | 75 (≈ 18.1 µg/mL)
